Test results reported in patent US20150133434A1, “Compositions and Methods for Reactivating Latent Immunodeficiency Virus” (priority 2012, published 2015).
Entries after “also recorded” stand apart in the source; their conditions may differ.

Columns and labels:
[1] = tested on: HIV LTR promoter driving destabilized GFP in Jurkat cells; experiment: Single-cell time-lapse fluorescence microscopy of LTR-GFP Jurkat cells (two-state transcription model); format: cell-based
Experimental: Lentiviral vectors expressing the LTR-GFP cassette in the absence of Tat were used to infect 5×10^5 Jurkat cells at a multiplicity of infection <0.1, resulting in 25,000-50,000 infected cells each presumably with a unique integration site. Cells were then sorted by FACS to isolate green fluorescent protein-labeled (GFP^+) cells and fluorescently imaged on glass-bottom dishes in RPMI 1640 with 10% fetal calf serum and 1% penicillin-streptomycin and 1 μM JQ1 at t=0 h for the treated population. The imaging took place in humidified conditions at 37° C. and 5% CO2 for 12-24 hours with a 40× (1.2 NA) oil-immersion objective on a Zeiss Observer Z1 microscope equipped with an automated linear-encoded X-Y stage. Image processing and cell tracking were performed in Matlab™ with an in-house algorithm (Weinberger et al. Nature Genet 2008; 40:466-70) and a single 12-hour experiment could generate up to 1000 single-cell trajectories for analysis.
For each trajectory, noise autocorrelation (Φ(t)) and magnitude (CV2) were calculated using an established noise processing algorithm (Weinberger et al. Nature Genet 2008; 40:466-70; Austin D W et al., Nature 2006; 439:608-11) A published theory (Simpson M L, et al. J Theor Biol 2004; 229:383-94; Cox C D, et al. Proc Natl Acad Sci USA 2008; 105:10809-14) of the two-state transcriptional bursting model yields analytical expressions for the autocorrelation of the noise, Φ(τ), and noise magnitude. Derivations and calculated burst size and frequency have been reported (Singh A, et al. Biophysical Journal 2010; 98:L32-L4). Exogenous JQ1 addition can change either mean fluorescence, variability of expression (defined by the coefficient of variation, CV), or both. Modeling of 2-state transcription enables the differentiation between modulations in transcriptional initiation (Dkon) or in the burst size (DT/koff).
To biophysically characterize the Tat-independent JQ1 effect on the HIV LTR, single-cell time-lapse fluorescence microscopy was performed on ˜2,000 Jurkat cells where each cell carried a different integration site of the LTR promoter driving a destabilized GFP reporter (FIG. 24A). Mean fluorescence intensity (MFI) and the magnitude of intensity fluctuations (i.e. the ‘noise’) were quantified for sub-clusters of polyclonal cells in response to JQ1 treatment (FIG. 24). The data was analyzed using an established two-state model of episodic transcription in which the LTR switches between a transcriptional OFF state, where RNA polymerase II is stalled, and a transcriptional ON state where elongation occurs and multiple mRNA transcripts are produced at a rate=T (FIG. 24B). In this model, promoter switching occurs with rates kon and koff which generates pulses or bursts of transcription.
To determine how JQ1 influences these biophysical parameters (koff, kon, T), changes in LTR MFI and noise (measured by the coefficient of variation, CV, which is defined as the standard deviation over the mean) were examined and compared to the untreated LTR (FIG. 24C, D). By qualifying MFI and CV in time-lapse trajectories, changes in both burst frequency (kon) and burst size, or the # of mRNA produced per activity pulse, (T/koff) can be determined.

[2] = tested on: HIV LTR-GFP in J-Lat A72 cells; experiment: JQ1 response in A72 cells after shRNA knockdown (cyclin T1, BRD2, BRD4), flow cytometry of GFP; format: cell-based
Experimental: ShRNA-expressing lentiviral vectors were purchased from Open Biosystems. The plasmids TRCN0000006308 and TRCN0000006310 were used to deplete BRD2, plasmids TRCN0000021424 and TRCN0000021428 were used to deplete BRD4, and plasmids TRCN0000013673 and TRCN0000013675 were used to deplete cyclin T1. The pLKO.1 vector containing scramble shRNA was used as control. […]. J-Lat A72 cells (containing a LTR-GFP construct) were spininfected with virus (1 ng of p24 per 10^6 cells) containing shRNAs against BRD2, BRD4, cyclin T1 or nontargeting control shRNAs and were selected with puromycin (2 μg/ml; Sigma) (Naldini L, et al., Science 1996; 272:263-7). After 4 days of selection, cells were treated with the indicated concentration of drugs. The percentage of GFP^+ cells was determined after 18 h using a MACSQuant VYB FACS analyzer (Miltenyi Biotech GmbH). Cell viability was monitored by forward and side scatter analysis. Analysis was conducted on 3×10,000 live cells per condition, and all experiments were independently repeated at least three times. Data were analyzed using FlowJo 9.4 (Tree Star).
As transcription elongation at the HIV promoter uniquely depends on P-TEFb, whether the JQ1 effect in latent cells requires intact P-TEFb was determined. Short hairpin RNAs (shRNAs) directed against cyclin T1, an important component of P-TEFb, were introduced into A72 cells with lentiviral vectors. Knockdown of cyclin T1 yielded lower basal levels in GFP^+ cells than control cells expressing nontargeting shRNAs (FIG. 25A).
To test the functional relevance of BET proteins in HIV latency, lentiviral shRNA knockdown studies of endogenous BRD2 and BRD4 proteins were performed in A72 cells lacking Tat. BRD2 is a close relative of BRD4, but lacks a C-terminal PID domain. […] BRD2 binds JQ1 and other BET inhibitors, albeit with lower binding affinities than BRD4.
(A) A72 cells were infected with virus containing shRNA constructs targeting cyclin T1 or a nontargeting control. Knockdown of cyclin T1 protein levels are shown by immunoblotting with cyclin T1 or the control α-tubulin antibody. At 4 days after infection, cells were treated with JQ1 or DMSO at the indicated concentrations for 18 h and analyzed by flow cytometry. […] Average (±SD) of three experiments is shown. (B) A72 cells were infected with virus containing shRNA constructs targeting BRD2, BRD4 or a nontargeting control. At 4 days after infection, cells were treated with JQ1 or DMSO at the indicated concentrations for 18 h and examined by flow cytometry. […] Results represent average (±SD) of three experiments. Knockdown of BRD2 and BRD4 protein levels were confirmed by immunoblotting with BRD2 and BRD4 antibodies or the control α-tubulin. All treatments in (A) and (B) on the X axis are in μM.

Cc1sc2c(c1C)C(c1ccc(Cl)cc1)=N[C@@H](CC(=O)OC(C)(C)C)c1nnc(C)n1-2 [JQ1, tert-Butyl 2-((6S)-4-(4-chlorophenyl)-2,3,9-trimethyl-6H-thieno[3,2-f][1,2,4]triazolo[4,3-a][1,4]diazepin-6-yl)acetate]
delay in transcriptional initiation ([1]; 1 μM JQ1, average): ~50 min
increase of mRNAs per pulse of transcriptional activity ([1]; 1 μM JQ1, average): ~15 mRNAs per pulse
LTR noise (coefficient of variation) ([1]; 1 μM JQ1 vs untreated): increases
average dwell time in the OFF state (1/kon) ([1]; 1 μM JQ1 vs untreated): increases
mean fluorescence intensity (MFI) ([1]; 1 μM JQ1 vs untreated): without a significant shift
transcription burst size (T/koff) ([1]; 1 μM JQ1 vs untreated): enhancement; also recorded: increases
activation of the HIV LTR in response to JQ1 ([2]; BRD2 knockdown cells): twofold
response to JQ1 ([2]; BRD4 knockdown cells): not affected
activation of the HIV LTR in response to JQ1 ([2]; control cells (nontargeting shRNA)): 3.3 fold
cells responding with GFP expression to JQ1, relative to control cells ([2]; cyclin T1 knockdown cells): half as many cells responded
